Data from EP1268431B1 (Wyeth, priority 2000, dated 2001).
Several values for one entry are separate records, joined by “and”; a condition that tells them apart may be missing. Identical values can stand only once.

Columns and labels:
[1] = system: Human adenocarcinoma cell line LoVo; experiment: Cell Based Screen for Inhibitors of Raf Kinase, LoVo cells; details: four days, SRB
Procedure: (§1) • Cell Lines: Human adenocarcinoma cell line LoVo which is known to be growth inhibited by low nM concentrations of a reference standard inhibitor of Ras and human adenocarcinoma cell line CaCo-2, which is known to be growth resistant to the same reference compound. • Cell Media: RPMI 1640 with 10% Fetal Bovine Serum supplemented with L-glutamine and Pennicilin/Streptomycin. • Compounds: Supplied usually as a 10 mM stock in 100% DMSO. • Normal Saline: 150 mM NaCl • Trichloroacetic Acid (TCA): 50% (w/v) in water • Sulforhodamine B (SRB): 0.4% (w/v) in 1% Acetic Acid • Tris Base: 10 mM in water
(§2) Cells are plated at 2000 cells per well for cell line LoVo and 1500 cells for cell line CaCo-2 in 96 well plates. Cells are plated in media (200 µl) and allowed to adhere overnight at 37° C. At 24 hours post plating, compounds are added directly at a volume of 0.5 µl. For the qualitative screen (compounds screened at 25 µM) compound is added directly to cells. For the quantitative screen, compound is first diluted in DMSO to generate concentrations of compound or reference standard of: 1, 5, 10 and 25 µM. It is advisable to make the dilutions in an identical 96 well plate so that compounds may be added using a multichannel micropipettor set at 0.5 µl. The cells are then incubated for four days after which the media is removed using a 12 well manifold by first tipping the plate forward at a 45 degree angle and then inserting the manifold in an upright orientation to prevent the tips of the manifold from disturbing cells at the bottom of the plate. 200 µl of normal saline is then added to each well using an 8 well multichannel pipettor, followed by the careful addition of 50 µl of 50% TCA. The plates are then incubated for 2 hours at 4 ° C, after which the supernatant is removed using the same technique as above and the plated washed twice with 200 µl water. The plates are then air dried and 50 µl of SRB stock solution is carefully added so that the entire bottom of each well is covered. This again may be used using an 8 well multichannel pipettor. The SRB is incubated with fixed cells for 15 minutes at room temperature after which the SRB is removed with the manifold as described above and the plates washed twice with 350 µl of 1% acetic acid per well each time.The plates are then air dried after which the bound SRB is released from protein by the addition of 200 µl of Tris base. Resolubilizing the SRB is aided by placing the plates on a rotator for 15-30 minutes. The absorbance of each well is determined at 550 or 562 nm using a microtiter plate reader.
(§3) Each compound or dilution thereof is performed in triplicate. Outliers are identified by visual inspection of the data. Each plate should have a "0" control (vehicle only).
(§4) Quantitative Assay: A standard curve is constructed by plotting the concentration of compound against the average absorbance calculated at that concentration. A curve is plotted and the concentration at which the curve passes through the 50% the absorbance mark seen in the "0" control well is the IC50 calculated for that compound. […]

[2] = system: human adenocarcinoma cell line CaCo-2; experiment: Cell Based Screen for Inhibitors of Raf Kinase, CaCo-2 cells; details: CaCo-2, four days, SRB
Procedure: as §1, §2, §3, §4

What does the source list for `CC(C)N1CCN(Cc2ccc(-c3ccc4c(Nc5ccc(Sc6nccn6C)c(Cl)c5)c(C#N)cnc4c3)cc2)CC1` [Example 98, 4-({3-Chloro-4-[(1-methyl-1H-imidazol-2-yl)sulfanyl]phenyl}amino)-7-{4-[(4-isopropyl-1-piperazinyl)methyl]phenyl}-3-quinolinecarbonitrile]?
IC50 ([1]; Homo sapiens, 96 h): 7.1 nM; IC50 ([2]; Homo sapiens, Caco-2, 96 h): 640 nM

With `N#Cc1cnc2cc(-c3csc(CN4CCOCC4)c3)ccc2c1Nc1ccc(Oc2ccccc2)cc1` [Example 7, 7-[5-(4-Morpholinylmethyl)-3-thienyl]-4-(4-phenoxyanilino)-3-quinolinecarbonitrile] as the molecule, how does the IC50 ([1]; Homo sapiens, 96 h) read?
Its IC50 is 3700 nM.

What about the IC50 ([2]; Homo sapiens, Caco-2, 96 h) of the same molecule?
Its IC50 is over 10000 nM.

Which IC50 ([1]; Homo sapiens, 96 h) does the source give for `CCN1CCN(Cc2cccc(-c3ccc4c(Nc5ccc(Sc6nccn6C)c(Cl)c5)c(C#N)cnc4c3)n2)CC1` [Example 201, 4-{3-chloro-4-[(1-methyl-1H-imidazol-2-yl)sulfanyl]anilino}-7-{6-[(4-ethyl-1-piperazinyl)methyl]-2-pyridinyl}-3-quinolinecarbonitrile] here?
Its IC50 is 8.4 nM.

And the IC50 ([2]; Homo sapiens, Caco-2, 96 h)?
Its IC50 is over 1000 nM.

With `Cn1ccnc1Sc1ccc(Nc2c(C#N)cnc3cc(-c4ccc(CN5CCN(C(=O)OC(C)(C)C)CC5)cc4)ccc23)cc1Cl` [Example 137, tert-butyl 4-{4-[4-({3-chloro-4-[(1-methyl-1H-imidazol-2-yl)sulfanyl]phenyl}amino)-3-cyano-7-quinolinyl]benzyl}-1-piperazinecarboxylate] as the molecule, how does the IC50 ([1]; Homo sapiens, 96 h) read?
The IC50 was 48.5 nM.

And the IC50 ([2]; Homo sapiens, Caco-2, 96 h)?
The IC50 was over 1000 nM.

`CN(CCO)Cc1ccc(-c2ccc3c(Nc4ccc(Sc5nccn5C)c(Cl)c4)c(C#N)cnc3c2)nc1` [Example 106, 4-({3-Chloro-4-[(1-methyl-1H-imidazol-2-yl)sulfanyl]phenyl}amino)-7-(5-{[(2-hydroxyethyl)(methyl)amino]methyl}-2-pyridinyl)-3-quinolinecarbonitrile] was tested. Which IC50 ([1]; Homo sapiens, 96 h) did it give?
Its IC50 is 6.4 nM.

And the IC50 ([2]; Homo sapiens, Caco-2, 96 h)?
The IC50 was over 1000 nM.

What does the source list for `CCN1CCN(c2ccc(-c3ccc4c(Nc5ccc(Sc6nccn6C)c(Cl)c5)c(C#N)cnc4c3)nc2)CC1` [Example 108, 4-({3-Chloro-4-[(1-methyl-1H-imidazol-2-yl)sulfanyl]phenyl}amino)-7-[5-(4-ethyl-1-piperazinyl)-2-pyridinyl]-3-quinolinecarbonitrile]?
IC50 ([1]; Homo sapiens, 96 h): 2.6 nM; IC50 ([2]; Homo sapiens, Caco-2, 96 h): 390 nM

With `Cn1ccnc1Sc1ccc(Nc2c(C#N)cnc3cc(-c4ccc(CN5CCC(C(=O)O)CC5)cn4)ccc23)cc1Cl` [Example 175, 1-{[6-(4-{3-chloro-4-[(1-methyl-1H-imidazol-2-yl)sulfanyl]anilino}-3-cyano-7-quinolinyl)-3-pyridinyl]methyl}-4-piperidinecarboxylic acid] as the molecule, how does the IC50 ([1]; Homo sapiens, 96 h) read?
Its IC50 is 330 nM.

And the IC50 ([2]; Homo sapiens, Caco-2, 96 h)?
Its IC50 is over 1000 nM.

What does the source list for `N#Cc1cnc2cc(-c3ccc(CN4CCOCC4)c(CN4CCOCC4)c3)ccc2c1Nc1ccc(OCc2ccccc2)c(Cl)c1` [Example 132, 4-[4-(benzyloxy)-3-chloroanilino]-7-[3,4-bis(4-morpholinylmethyl)phenyl]-3-quinolinecarbonitrile]?
IC50 ([1]; Homo sapiens, 96 h): 430 nM; IC50 ([2]; Homo sapiens, Caco-2, 96 h): 7000 nM

Which results are given for `CN(CCO)c1ccc(-c2ccc3c(Nc4ccc(Sc5nccn5C)c(Cl)c4)c(C#N)cnc3c2)cn1` [Example 216, 4-({3-chloro-4-[(1-methyl-1H-imidazol-2-yl)sulfanyl]phenyl}amino)-7-{6-[(2-hydroxyethyl)(methyl)amino]-3-pyridinyl}-3-quinolinecarbonitrile]?
IC50 ([1]; Homo sapiens, 96 h): 7 nM; IC50 ([2]; Homo sapiens, Caco-2, 96 h): > 1000 nM

How did the IC50 ([1]; Homo sapiens, 96 h) turn out when `Cn1ccnc1Sc1ccc(Nc2c(C#N)cnc3cc(-c4ccc(CN5CCC(O)CC5)s4)ccc23)cc1Cl` [Example 159, 4-{3-chloro-4-[(1-methyl-1H-imidazol-2-yl)sulfanyl]anilino}-7-{5-[(4-hydroxy-1-piperidinyl)methyl]-2-thienyl}-3-quinolinecarbonitrile] was run?
Its IC50 is 4.2 nM.

What about the IC50 ([2]; Homo sapiens, Caco-2, 96 h) of the same molecule?
The IC50 was 710 nM.

Which results are given for `Cn1ccnc1Sc1ccc(Nc2c(C#N)cnc3cc(-c4ccc(CN5CCOCC5)cc4)ccc23)cc1Cl` [Example 63, 4-{3-Chloro-4-[(1-methyl-1H-imidazol-2-yl)sulfanyl]anilino}-7-[4-(4-morpholinylmethyl)phenyl]-3-quinolinecarbonitrile]?
IC50 ([1]; Homo sapiens, 96 h): 3800 nM; IC50 ([2]; Homo sapiens, Caco-2, 96 h): 2200 nM

Which IC50 ([1]; Homo sapiens, 96 h) does the source give for `N#Cc1cnc2cc(-c3csc(CN4CCOCC4)c3)ccc2c1Nc1ccc(Cc2ccccc2)cc1` [Example 8, 4-(4-Benzylanilino)-7-[5-(4-morpholinylmethyl)-3-thienyl]-3-quinolinecarbonitrile] here?
The IC50 was over 10000 nM.

And the IC50 ([2]; Homo sapiens, Caco-2, 96 h)?
Its IC50 is over 10000 nM.

With `COC(=O)C1CCN(Cc2ccc(-c3ccc4c(Nc5ccc(Sc6nccn6C)c(Cl)c5)c(C#N)cnc4c3)nc2)CC1` [Example 107, Methyl 1-{[6-(4-{3-chloro-4-[(1-methyl-1H-imidazol-2-yl)sulfanyl]anilino}-3-cyano-7-quinolinyl)-3-pyridinyl]methyl}-4-piperidinecarboxylate] as the molecule, how does the IC50 ([1]; Homo sapiens, 96 h) read?
The IC50 was 25 nM.

And the IC50 ([2]; Homo sapiens, Caco-2, 96 h)?
The IC50 was over 1000 nM.

With `CCN1CCN(Cc2ccnc(-c3ccc4c(Nc5ccc(Sc6nccn6C)c(Cl)c5)c(C#N)cnc4c3)c2)CC1` [Example 205, 4-({3-chloro-4-[(1-methyl-1H-imidazol-2-yl)sulfanyl]phenyl}amino)-7-{4-[(4-ethyl-1-piperazinyl)methyl]-2-pyridinyl}-3-quinolinecarbonitrile] as the molecule, how does the IC50 ([1]; Homo sapiens, 96 h) read?
Its IC50 is 275 nM.

And the IC50 ([2]; Homo sapiens, Caco-2, 96 h)?
Its IC50 is 940 nM.

How did the IC50 ([1]; Homo sapiens, 96 h) turn out when `Cn1ccnc1Sc1ccc(Nc2c(C#N)cnc3cc(-c4ccc(CN5CCCCC5)s4)ccc23)cc1Cl` [Example 160, 4-{3-chloro-4-[(1-methyl-1H-imidazol-2-yl)sulfanyl]anilino}-7-[5-(1-piperidinylmethyl)-2-thienyl]-3-quinolinecarbonitrile] was run?
Its IC50 is 4.1 nM.

And the IC50 ([2]; Homo sapiens, Caco-2, 96 h)?
Its IC50 is 620 nM.

`N#Cc1cnc2cc(-c3ccc(CN4CCOCC4)cn3)ccc2c1Nc1ccc(Oc2ccccc2)cc1` [Example 56, 7-[5-(4-Morpholinylmethyl)-2-pyridinyl]-4-(4-phenoxyanilino)-3-quinolinecarbonitrile] was tested. Which IC50 ([1]; Homo sapiens, 96 h) did it give?
The IC50 was 290 nM.

And the IC50 [1]?
Its IC50 is 440 nM and 310 nM.

And the IC50 [2]?
The IC50 was 600 nM.

What about the IC50 ([2]; Homo sapiens, Caco-2, 96 h) of the same molecule?
Its IC50 is 1000 nM.

Which results are given for `Cn1ccnc1Sc1ccc(Nc2c(C#N)cnc3cc(-c4ccc(CN5CCSCC5)cn4)ccc23)cc1Cl` [Example 219]?
IC50 ([1]; Homo sapiens, 96 h): 15 nM; IC50 ([2]; Homo sapiens, Caco-2, 96 h): > 1000 nM

For `Cn1ccnc1Sc1ccc(Nc2c(C#N)cnc3cc(-c4ccc(CN5CCC(O)CC5)cc4)ccc23)cc1Cl` [Example 134, 4-{3-chloro-4-[(1-methyl-1H-imidazol-2-yl)sulfanyl]anilino}-7-{4-[(4-hydroxy-1-piperidinyl)methyl]phenyl}-3-quinolinecarbonitrile], which IC50 ([1]; Homo sapiens, 96 h) is on record?
Its IC50 is 4.6 nM.

What about the IC50 ([2]; Homo sapiens, Caco-2, 96 h) of the same molecule?
Its IC50 is over 1000 nM.

Which IC50 ([1]; Homo sapiens, 96 h) does the source give for `CCOC(=O)C1CCN(c2ccc(-c3ccc4c(Nc5ccc(Sc6nccn6C)c(Cl)c5)c(C#N)cnc4c3)cn2)CC1` [Example 213, ethyl 1-{5-[4-({3-chloro-4-[(1-methyl-1H-imidazol-2-yl)sulfanyl]phenyl}amino)-3-cyano-7-quinolinyl]-2-pyridinyl}-4-piperidinecarboxylate] here?
The IC50 was 45.2 nM.

What about the IC50 ([2]; Homo sapiens, Caco-2, 96 h) of the same molecule?
Its IC50 is over 1000 nM.

With `Cn1ccnc1Sc1ccc(Nc2c(C#N)cnc3cc(-c4cccc(CN5CCOCC5)n4)ccc23)cc1Cl` [Example 199, 4-{3-chloro-4-[(1-methyl-1H-imidazol-2-yl)sulfanyl]anilino}-7-[6-(4-morpholinylmethyl)-2-pyridinyl]-3-quinolinecarbonitrile] as the molecule, how does the IC50 ([1]; Homo sapiens, 96 h) read?
The IC50 was 9.5 nM.

What about the IC50 ([2]; Homo sapiens, Caco-2, 96 h) of the same molecule?
The IC50 was over 1000 nM.

With `Cn1ccnc1Sc1ccc(Nc2c(C#N)cnc3cc(-c4ccc(CN5CCC(N6CCCC6)CC5)cn4)ccc23)cc1Cl` [Example 173, 4-{3-chloro-4-[(1-methyl-1H-imidazol-2-yl)sulfanyl]anilino}-7-(5-{[4-(1-pyrrolidinyl)-1-piperidinyl]methyl}-2-pyridinyl)-3-quinolinecarbonitrile] as the molecule, how does the IC50 ([1]; Homo sapiens, 96 h) read?
The IC50 was 25 nM.

And the IC50 ([2]; Homo sapiens, Caco-2, 96 h)?
Its IC50 is over 1000 nM.

Which IC50 ([1]; Homo sapiens, 96 h) does the source give for `Cn1ccnc1Sc1ccc(Nc2c(C#N)cnc3cc(-c4ccc(C=O)cn4)ccc23)cc1Cl` [Example 170, 4-{3-chloro-4-[(1-methyl-1H-imidazol-2-yl)sulfanyl]anilino}-7-(5-formyl-2-pyridinyl)-3-quinolinecarbonitrile] here?
The IC50 was 50 nM.

And the IC50 [2]?
Its IC50 is 5000 nM.

What about the IC50 ([2]; Homo sapiens, Caco-2, 96 h) of the same molecule?
Its IC50 is over 10000 nM.

With `Cn1ccnc1Sc1ccc(Nc2c(C#N)cnc3cc(-c4ccc(C(=O)N5CCOCC5)cc4)ccc23)cc1Cl` [Example 129, 4-({3-Chloro-4-[(1-methyl-1H-imidazol-2-yl)sulfanyl]phenyl}amino)-7-[4-(4-morpholinylcarbonyl)phenyl]-3-quinolinecarbonitrile] as the molecule, how does the IC50 ([1]; Homo sapiens, 96 h) read?
The IC50 was 42 nM.

And the IC50 ([2]; Homo sapiens, Caco-2, 96 h)?
The IC50 was over 1000 nM.
